This note sets out measurements from patent US11358957B2, “Microbiocidal oxadiazole derivatives” (SYNGENTA PARTICIPATIONS AG, priority 2017, dated 2022).

Assay [1] concerns Puccinia recondita f. Sp. Tritici. Kind of assay: Fungicidal activity against Puccinia recondita f. sp. tritici / wheat / leaf disc preventative (brown rust). The settings on record: foliar, 200 ppm in the applied formulation, wheat leaf segments cv. Kanzler, preventative (inoculated 1 day after application), compared to untreated, read-out: disease control. The class given is in vivo. Here is the method:
Leaf disks or leaf segments of various plant species are cut from plants grown in a greenhouse. The cut leaf disks or segments are placed in multiwell plates (24-well format) onto water agar. The leaf disks are sprayed with a test solution before (preventative) or after (curative) inoculation. Compounds to be tested are prepared as DMSO solutions (max. 10 mg/mL) which are diluted to the appropriate concentration with 0.025% Tween20 just before spraying. The inoculated leaf disks or segments are incubated under defined conditions (temperature, relative humidity, light, etc.) according to the respective test system. A single evaluation of disease level is carried out 3 to 14 days after inoculation, depending on the pathosystem. Percent disease control relative to the untreated check leaf disks or segments is then calculated. Wheat leaf segments cv. Kanzler were placed on agar in multiwell plates (24-well format) and sprayed with the formulated test compound diluted in water. The leaf disks were inoculated with a spore suspension of the fungus 1 day after application. The inoculated leaf segments were incubated at 19° C. and 75% relative humidity (rh) under a light regime of 12 hours light/12 hours darkness in a climate cabinet and the activity of a compound was assessed as percent disease control compared to untreated when an appropriate level of disease damage appears in untreated check leaf segments (7 to 9 days after application). The following compounds at 200 ppm in the applied formulation give at least 80% disease control in this test when compared to untreated control leaf disks under the same conditions, which show extensive disease development.

For assay [2] the test system is unchanged. Briefly: Fungicidal activity against Puccinia recondita f. sp. tritici / wheat / leaf disc curative (brown rust). It is filed as in vivo. The note with it: foliar, 24 h, 200 ppm in the applied formulation, wheat leaf segments cv. Kanzler, curative (applied 1 day after inoculation), compared to untreated, read-out: disease control. On the procedure:
Leaf disks or leaf segments of various plant species are cut from plants grown in a greenhouse. The cut leaf disks or segments are placed in multiwell plates (24-well format) onto water agar. The leaf disks are sprayed with a test solution before (preventative) or after (curative) inoculation. Compounds to be tested are prepared as DMSO solutions (max. 10 mg/mL) which are diluted to the appropriate concentration with 0.025% Tween20 just before spraying. The inoculated leaf disks or segments are incubated under defined conditions (temperature, relative humidity, light, etc.) according to the respective test system. A single evaluation of disease level is carried out 3 to 14 days after inoculation, depending on the pathosystem. Percent disease control relative to the untreated check leaf disks or segments is then calculated. Wheat leaf segments cv. Kanzler are placed on agar in multiwell plates (24-well format). The leaf segments are then inoculated with a spore suspension of the fungus. Plates were stored in darkness at 19C and 75% relative humidity. The formulated test compound diluted in water was applied 1 day after inoculation. The leaf segments were incubated at 19° C. and 75% relative humidity under a light regime of 12 hours light/12 hours darkness in a climate cabinet and the activity of a compound was assessed as percent disease control compared to untreated when an appropriate level of disease damage appears in untreated check leaf segments (6 to 8 days after application). The following compounds at 200 ppm in the applied formulation give at least 80% disease control in this test when compared to untreated control leaf disks under the same conditions, which show extensive disease development.

Assay [3] concerns Glomerella lagenarium (Colletotrichum lagenarium). Kind of assay: Fungicidal activity against Glomerella lagenarium (Colletotrichum lagenarium) liquid culture / cucumber / preventative (anthracnose). The class given is cell-based. The note with it: Colletotrichum orbiculare; 20 ppm in the applied formulation; liquid culture (PDB), inhibition of growth measured photometrically 3 to 4 days after application; compared to untreated; read-out: disease control. On the procedure:
Mycelia fragments or conidia suspensions of a fungus prepared either freshly from liquid cultures of the fungus or from cryogenic storage, are directly mixed into nutrient broth. DMSO solutions of the test compound (max. 10 mg/mL) are diluted with 0.025% Tween20 by a factor of 50 and 10 μL of this solution is pipetted into a microtiter plate (96-well format). The nutrient broth containing the fungal spores/mycelia fragments is then added to give an end concentration of the tested compound. The test plates are incubated in the dark at 24° C. and 96% relative humidity. The inhibition of fungal growth is determined photometrically after 2 to 7 days, depending on the pathosystem, and percent antifungal activity relative to the untreated check is calculated. Conidia of the fungus from cryogenic storage are directly mixed into nutrient broth (PDB—potato dextrose broth). After placing a (DMSO) solution of test compound into a microtiter plate (96-well format), the nutrient broth containing the fungal spores is added. The test plates are incubated at 24° C. and the inhibition of growth is measured photometrically 3 to 4 days after application. The following compounds at 20 ppm in the applied formulation give at least 80% disease control in this test when compared to untreated control under the same conditions, which show extensive disease development.

SMILES strings stand for the structures. Some results are limits rather than exact numbers.

Turning to `FC(F)(F)c1nc(-c2ccc(Cn3cncn3)s2)no1` [Compound 1.2, 3-[5-(1,2,4-triazol-1-ylmethyl)-2-thienyl]-5-(trifluoromethyl)-1,2,4-oxadiazole], the pest or weed control at 200 ppm in assay [1] and in assay [2] was at least 80% throughout. Besides, the inhibition of growth at 20 ppm in assay [3] was at least 80%.

Regarding `FC(F)(F)c1nc(-c2ccc(Cn3ccc4cccnc43)s2)no1` [Compound 1.8, 3-[5-(pyrrolo[2,3-b]pyridin-1-ylmethyl)-2-thienyl]-5-(trifluoromethyl)-1,2,4-oxadiazole], the pest or weed control at 200 ppm in assay [1] and in assay [2] was at least 80% in each case. Moreover, the inhibition of growth at 20 ppm in assay [3] was at least 80%.

For `O=[N+]([O-])c1cnn(Cc2ccc(-c3noc(C(F)(F)F)n3)s2)c1` [Compound 1.9, 3-[5-[(4-nitropyrazol-1-yl)methyl]-2-thienyl]-5-(trifluoromethyl)-1,2,4-oxadiazole], the pest or weed control at 200 ppm in assay [1] and in assay [2] was at least 80% in each case. For the same molecule, in assay [3], the inhibition of growth at 20 ppm was at least 80%.

For `N#Cc1cnn(Cc2ccc(-c3noc(C(F)(F)F)n3)s2)c1` [Compound 1.11, 1-[[5-[5-(trifluoromethyl)-1,2,4-oxadiazol-3-yl]-2-thienyl]methyl]pyrazole-4-carbonitrile], the pest or weed control at 200 ppm in assay [1] and in assay [2] was at least 80% in each case. The inhibition of growth at 20 ppm in assay [3] is at least 80%.

Turning to `Cc1cc(N)n(Cc2ccc(-c3noc(C(F)(F)F)n3)s2)n1` [Compound 1.16, 5-methyl-2-[[5-[5-(trifluoromethyl)-1,2,4-oxadiazol-3-yl]-2-thienyl]methyl]pyrazol-3-amine], the pest or weed control at 200 ppm in assay [1] and in assay [2] was at least 80% throughout. Further, in assay [3], the inhibition of growth at 20 ppm is at least 80%.

Consider `O=Cc1cnn(Cc2ccc(-c3noc(C(F)(F)F)n3)s2)c1` [Compound 1.22, 1-[[5-[5-(trifluoromethyl)-1,2,4-oxadiazol-3-yl]-2-thienyl]methyl]pyrazole-4-carbaldehyde], for which the pest or weed control at 200 ppm in assay [1] and in assay [2] was at least 80% throughout. The inhibition of growth at 20 ppm in assay [3] is at least 80%.

In the case of `CC(c1ccc(-c2noc(C(F)(F)F)n2)s1)n1cc(C(=O)NCC(C)(C)C)cn1` (centres unmarked) [Compound 1.66, N-(2,2-dimethylpropyl)-1-[1-[5-[5-(trifluoromethyl)-1,2,4-oxadiazol-3-yl]-2-thienyl]ethyl]pyrazole-4-carboxamide], the pest or weed control at 200 ppm in assay [1] and in assay [2] was at least 80% throughout. The inhibition of growth at 20 ppm in assay [3] was at least 80%.

As to `CON(C)C(=O)c1cnn(C(C)c2ccc(-c3noc(C(F)(F)F)n3)s2)c1` (centres unmarked) [Compound 1.68, N-methoxy-N-methyl-1-[1-[5-[5-(trifluoromethyl)-1,2,4-oxadiazol-3-yl]-2-thienyl]ethyl]pyrazole-4-carboxamide], the pest or weed control at 200 ppm in assay [1] and in assay [2] was at least 80% each time. Also, the inhibition of growth at 20 ppm in assay [3] was at least 80%.

As to `CNC(=O)c1cnn(C(C)c2ccc(-c3noc(C(F)(F)F)n3)s2)c1` (centres unmarked) [Compound 1.70, N-methyl-1-[1-[5-[5-(trifluoromethyl)-1,2,4-oxadiazol-3-yl]-2-thienyl]ethyl]pyrazole-4-carboxamide], the pest or weed control at 200 ppm in assay [1] and in assay [2] was at least 80% each time. Also, in assay [3], the inhibition of growth at 20 ppm is at least 80%.

In the case of `C=CCNC(=O)c1cnn(C(C)c2ccc(-c3noc(C(F)(F)F)n3)s2)c1` (centres unmarked) [Compound 1.73, N-allyl-1-[1-[5-[5-(trifluoromethyl)-1,2,4-oxadiazol-3-yl]-2-thienyl]ethyl]pyrazole-4-carboxamide], the pest or weed control at 200 ppm in assay [1] and in assay [2] was at least 80% each time. The inhibition of growth at 20 ppm in assay [3] is at least 80%.

In the case of `CC(c1ccc(-c2noc(C(F)(F)F)n2)s1)n1cc(C(=O)NC2CCC2)cn1` (centres unmarked) [Compound 1.79, N-cyclobutyl-1-[1-[5-[5-(trifluoromethyl)-1,2,4-oxadiazol-3-yl]-2-thienyl]ethyl]pyrazole-4-carboxamide], the pest or weed control at 200 ppm in assay [1] and in assay [2] was at least 80% throughout. The inhibition of growth at 20 ppm in assay [3] is at least 80%.

Take `CONC(=O)c1cnn(C(C)c2ccc(-c3noc(C(F)(F)F)n3)s2)c1` (centres unmarked) [Compound 1.82, N-methoxy-1-[1-[5-[5-(trifluoromethyl)-1,2,4-oxadiazol-3-yl]-2-thienyl]ethyl]pyrazole-4-carboxamide]: the pest or weed control at 200 ppm in assay [1] and in assay [2] was at least 80% each time. Besides, the inhibition of growth at 20 ppm in assay [3] was at least 80%.

As to `CC(c1ccc(-c2noc(C(F)(F)F)n2)s1)n1cc(C(=O)NC2CCCC2)cn1` (centres unmarked) [Compound 1.83, N-cyclopentyl-1-[1-[5-[5-(trifluoromethyl)-1,2,4-oxadiazol-3-yl]-2-thienyl]ethyl]pyrazole-4-carboxamide], the pest or weed control at 200 ppm in assay [1] and in assay [2] was at least 80% each time.

As to `CC(c1ccc(-c2noc(C(F)(F)F)n2)s1)n1cc(C(=O)NCc2ccco2)cn1` (centres unmarked) [Compound 1.85, N-(2-furylmethyl)-1-[1-[5-[5-(trifluoromethyl)-1,2,4-oxadiazol-3-yl]-2-thienyl]ethyl]pyrazole-4-carboxamide], the pest or weed control at 200 ppm in assay [1] and in assay [2] was at least 80% each time. In addition, the inhibition of growth at 20 ppm in assay [3] is at least 80%.

`CCN(C)C(=O)c1cnn(C(C)c2ccc(-c3noc(C(F)(F)F)n3)s2)c1` (centres unmarked) [Compound 1.88, N-ethyl-N-methyl-1-[1-[5-[5-(trifluoromethyl)-1,2,4-oxadiazol-3-yl]-2-thienyl]ethyl]pyrazole-4-carboxamide]: the pest or weed control at 200 ppm in assay [1] and in assay [2] was at least 80% each time. In addition, the inhibition of growth at 20 ppm in assay [3] was at least 80%.

On to `CCN(CC)C(=O)c1cnn(Cc2ccc(-c3noc(C(F)(F)F)n3)s2)c1` [Compound 1.113, N,N-diethyl-1-[[5-[5-(trifluoromethyl)-1,2,4-oxadiazol-3-yl]-2-thienyl]methyl]pyrazole-4-carboxamide], for which the pest or weed control at 200 ppm in assay [1] and in assay [2] was at least 80% each time.

With `CNC(=O)c1nccn1Cc1ccc(-c2noc(C(F)(F)F)n2)s1` [Compound 1.176, N-methyl-1-[[5-[5-(trifluoromethyl)-1,2,4-oxadiazol-3-yl]-2-thienyl]methyl]imidazole-2-carboxamide], the pest or weed control at 200 ppm in assay [1] and in assay [2] was at least 80% each time.

`O=C(NC1CC1)c1nccn1Cc1ccc(-c2noc(C(F)(F)F)n2)s1` [Compound 1.177, N-cyclopropyl-1-[[5-[5-(trifluoromethyl)-1,2,4-oxadiazol-3-yl]-2-thienyl]methyl]imidazole-2-carboxamide]: the pest or weed control at 200 ppm in assay [1] and in assay [2] was at least 80% in each case.
